# Measured values from publication PMC5951611, “Structural studies and molecular dynamics simulations suggest a processive mechanism of exolytic lytic transglycosylase from Campylobacter jejuni” (PLoS ONE, 2018).
# Biological target: T1, soluble lytic transglycosylase Cj0843 (Campylobacter jejuni, UniProt Q0PA47)
# T1 construct: gene Cj0843c; Cj0843-pET28b expressed in E. coli (not glycosylated); native P3_121 model contains residues 19–76 and 81–532
# Experiment: crystal structure ([…] Å, soaked crystals) and DSF Kd; also partial inhibition in PG turbidity assay
# Format: binding
# T1 sequence (Q0PA47 entry or part of it): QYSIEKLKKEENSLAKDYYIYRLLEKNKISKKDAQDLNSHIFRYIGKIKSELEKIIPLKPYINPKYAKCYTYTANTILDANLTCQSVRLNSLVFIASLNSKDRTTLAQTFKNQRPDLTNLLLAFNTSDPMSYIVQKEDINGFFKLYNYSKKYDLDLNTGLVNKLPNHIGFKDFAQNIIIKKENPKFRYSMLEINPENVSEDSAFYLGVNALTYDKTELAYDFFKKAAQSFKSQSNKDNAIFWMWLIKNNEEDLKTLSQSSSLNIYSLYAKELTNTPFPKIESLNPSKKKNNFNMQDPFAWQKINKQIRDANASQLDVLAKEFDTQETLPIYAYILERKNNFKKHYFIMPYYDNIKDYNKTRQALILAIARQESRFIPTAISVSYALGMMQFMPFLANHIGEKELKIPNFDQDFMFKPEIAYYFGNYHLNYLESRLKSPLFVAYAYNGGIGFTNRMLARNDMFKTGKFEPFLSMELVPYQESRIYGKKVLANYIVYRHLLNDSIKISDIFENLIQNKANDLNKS
smiles,measurement,value
CC(=O)N[C@H]1[C@H](O[C@H]2C[C@@H](C(=O)NCCS(=O)(=O)O)N[C@@H]2CO)O[C@H](CO)[C@@H](OS(=O)(=O)O)[C@@H]1O [bulgecin A],Kd,210 µM
